Test results reported in US11279703B2, “Fused pyrimidine compounds as BRD4 and JAK2 dual inhibitors and methods for use thereof” (APTOSE BIOSCIENCES INC., priority 2016, dated 2022).

Assays:
[1] = target: BRD4-BD1 (Homo sapiens (Human), UniProt O60885); experiment: AlphaLisa bromodomain binding assay, BRD4-BD1; details: Table 6; read-out: BRD4(1) IC50
[2] = target: BRD4-BD2 (Homo sapiens (Human), UniProt O60885); experiment: AlphaLisa bromodomain binding assay, BRD4-BD2; details: Table 6; read-out: BRD4(2) IC50
Source text: (§1) An AlphaLisa assay was used to observe bromodomain binding and measure IC50s for the compounds disclosed herein. An AlphaLisa assay is a bead-based assay used to detect interactions between bromodomains and polyacetylated histone peptides. Donor and acceptor beads bound to target and ligand are brought into proximity by this protein-protein interaction.
(§2) Equipment Required • 1. […] Plate centrifuge • 3. Plate shaker • 4. […] Single channel and multi-channel pipettes • 6. Microplate reader (Pherastar)
(§3) Stock and Final Assay Concentrations (FAC) • 1. All reference and test compounds are made at a concentration of 10 mM in DMSO. Compounds are serially diluted in DMSO and a FAC starting from 10 μM to 10 point 3 fold serial dilutions is arrived. FAC of DMSO is 1%. • 2. Enzyme stock and FAC
(§4) Biotinylated substrate (Acetylated histone H4, biotinylated substrate—cat no. AS64989-025, Anaspec) stock and FAC
(§5) • 4. Acceptor and donor beads stock and FAC
(§6) Buffers • For the enzyme and substrate dilution following buffer is used (for 50 ml) • HEPES: 50 mM 2.5 ml • NaCl: 25 mM 1.25 ml • DTT: 10 mM 0.05 ml • BSA: 0.1% 0.05 g • MilliQ water: 45.7 ml • For dilution of acceptor and donor beads AlphaLISA 5× epigenetics Buffer Perkin Elmer (Cat: AL008C) is used at 1× concentration.
(§7) Procedure • 1. […] Tap the plate gently • 3. […] Cover with plate sealer • 5. […] Incubate the plate at room temperature for 10 minutes • 7. Add 10 μl of the substrate • 8. Cover with plate sealer • 9. […] Cover with plate sealer • 14. […] Cover with plate sealer • 18.
(§8) The percent inhibition is calculated in the excel analysis template and the IC50 values are subsequently determined using a sigmoidal dose-response curve (variable slope) using GraphPad Prism® 5 software.

[3] = target: BRD2-BD1 (Homo sapiens (Human), UniProt P25440); experiment: AlphaLisa bromodomain binding assay, BRD2-BD1; details: Table 6; read-out: BRD2(1) IC50
BRD2-BD1, sequence (P25440 74-180): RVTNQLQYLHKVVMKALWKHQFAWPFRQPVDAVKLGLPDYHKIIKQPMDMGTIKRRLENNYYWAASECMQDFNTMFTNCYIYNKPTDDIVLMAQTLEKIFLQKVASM
Source text: as §1, §2, §3, §4, §5, §6, §7, §8

[4] = target: BRD3-BD1 (Homo sapiens (Human), UniProt Q15059); experiment: AlphaLisa bromodomain binding assay, BRD3-BD1; details: Table 6; read-out: BRD3(1) IC50
BRD3-BD1, sequence (Q15059 34-140): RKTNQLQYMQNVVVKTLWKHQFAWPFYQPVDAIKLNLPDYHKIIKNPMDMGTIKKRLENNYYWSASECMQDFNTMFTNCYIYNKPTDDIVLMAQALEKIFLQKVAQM
Source text: as §1, §2, §3, §4, §5, §6, §7, §8

[5] = target: BRDT-BD1 (Homo sapiens (Human), UniProt Q58F21); experiment: AlphaLisa bromodomain binding assay, BRDT-BD1; details: Table 6; read-out: BRDT(1) IC50
Source text: as §1, §2, §3, §4, §5, §6, §7, §8

[6] = target: JAK2 (Homo sapiens (Human), UniProt O60674); experiment: HTRF kinase assay, JAK2; assay type: biochemical; details: Table 6
JAK2, sequence (O60674 whole entry): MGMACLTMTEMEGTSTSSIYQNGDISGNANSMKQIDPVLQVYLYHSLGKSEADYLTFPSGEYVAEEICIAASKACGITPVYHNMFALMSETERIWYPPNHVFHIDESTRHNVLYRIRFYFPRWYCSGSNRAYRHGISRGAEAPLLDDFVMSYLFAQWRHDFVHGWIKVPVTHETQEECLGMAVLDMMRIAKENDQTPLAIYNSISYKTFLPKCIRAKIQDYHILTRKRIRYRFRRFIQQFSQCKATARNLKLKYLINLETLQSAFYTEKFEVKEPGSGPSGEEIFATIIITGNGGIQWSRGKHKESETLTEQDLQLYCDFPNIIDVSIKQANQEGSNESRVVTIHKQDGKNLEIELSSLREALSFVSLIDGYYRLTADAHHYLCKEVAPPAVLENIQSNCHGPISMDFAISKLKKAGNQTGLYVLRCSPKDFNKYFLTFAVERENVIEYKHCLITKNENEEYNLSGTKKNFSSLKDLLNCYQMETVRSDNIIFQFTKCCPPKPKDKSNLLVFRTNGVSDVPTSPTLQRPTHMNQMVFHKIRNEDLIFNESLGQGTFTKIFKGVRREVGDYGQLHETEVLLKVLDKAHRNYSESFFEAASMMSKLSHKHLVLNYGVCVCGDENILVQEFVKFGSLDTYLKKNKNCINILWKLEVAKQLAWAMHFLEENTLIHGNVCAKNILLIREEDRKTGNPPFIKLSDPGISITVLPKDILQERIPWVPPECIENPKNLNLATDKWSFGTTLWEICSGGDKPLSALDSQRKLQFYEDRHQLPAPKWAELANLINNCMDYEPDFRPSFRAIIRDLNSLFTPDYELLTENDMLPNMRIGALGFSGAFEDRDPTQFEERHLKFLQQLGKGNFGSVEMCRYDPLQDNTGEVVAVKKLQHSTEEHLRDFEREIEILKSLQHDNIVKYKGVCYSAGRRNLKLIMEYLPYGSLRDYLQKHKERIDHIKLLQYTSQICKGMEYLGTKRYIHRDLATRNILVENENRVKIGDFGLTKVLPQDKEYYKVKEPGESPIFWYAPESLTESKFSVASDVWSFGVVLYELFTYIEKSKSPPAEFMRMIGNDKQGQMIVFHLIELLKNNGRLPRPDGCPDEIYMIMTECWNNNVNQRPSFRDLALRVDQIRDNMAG

[7] = target: JAK1 (Homo sapiens (Human), UniProt P23458); experiment: HTRF kinase assay, JAK1; assay type: biochemical; details: Table 6
JAK1, sequence (P23458 whole entry): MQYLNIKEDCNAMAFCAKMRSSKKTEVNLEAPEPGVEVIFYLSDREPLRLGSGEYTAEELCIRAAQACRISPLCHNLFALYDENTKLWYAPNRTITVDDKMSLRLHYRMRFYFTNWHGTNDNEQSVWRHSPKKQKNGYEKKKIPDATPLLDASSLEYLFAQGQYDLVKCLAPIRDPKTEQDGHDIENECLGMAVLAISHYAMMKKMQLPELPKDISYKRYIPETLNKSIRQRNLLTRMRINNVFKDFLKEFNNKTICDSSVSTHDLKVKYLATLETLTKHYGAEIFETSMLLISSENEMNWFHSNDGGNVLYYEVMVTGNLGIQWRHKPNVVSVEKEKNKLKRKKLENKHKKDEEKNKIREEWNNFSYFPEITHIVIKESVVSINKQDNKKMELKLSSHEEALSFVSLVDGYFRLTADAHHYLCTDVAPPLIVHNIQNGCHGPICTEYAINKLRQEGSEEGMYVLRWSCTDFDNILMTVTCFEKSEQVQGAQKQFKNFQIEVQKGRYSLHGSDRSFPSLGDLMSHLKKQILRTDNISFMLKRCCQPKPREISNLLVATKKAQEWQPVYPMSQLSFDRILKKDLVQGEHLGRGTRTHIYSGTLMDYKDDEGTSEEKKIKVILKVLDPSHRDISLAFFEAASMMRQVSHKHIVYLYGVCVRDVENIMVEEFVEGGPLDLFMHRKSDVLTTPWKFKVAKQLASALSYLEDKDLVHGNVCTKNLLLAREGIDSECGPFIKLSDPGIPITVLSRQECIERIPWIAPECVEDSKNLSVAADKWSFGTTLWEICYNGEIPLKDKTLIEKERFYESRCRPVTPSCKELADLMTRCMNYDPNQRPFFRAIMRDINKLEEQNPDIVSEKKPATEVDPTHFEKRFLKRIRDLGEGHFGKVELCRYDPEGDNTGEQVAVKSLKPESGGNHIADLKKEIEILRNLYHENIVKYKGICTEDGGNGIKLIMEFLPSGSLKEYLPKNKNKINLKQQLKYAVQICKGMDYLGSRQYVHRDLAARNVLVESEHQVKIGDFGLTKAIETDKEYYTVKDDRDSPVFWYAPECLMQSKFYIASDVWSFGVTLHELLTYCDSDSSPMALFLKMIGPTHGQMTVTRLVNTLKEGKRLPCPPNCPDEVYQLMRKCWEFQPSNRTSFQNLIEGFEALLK
Source text: (§9) A kinase assay with HTRF was used to observe JAK activity and calculate the IC50s of compounds disclosed herein. HTRF is an enzymatic assay used to determine the amount of phosphorylated peptide. FRET (Fluorescence Resonance Energy Transfer) is based on the transfer of energy between two fluorophores—a donor and an acceptor—when in close proximity. Molecular interactions between biomolecules can be assessed by coupling each partner with a fluorescent label and by detecting the level of energy transfer. The amount of phopshorylated peptide can be detected using a combination of a Eu 3+Cryptate labeled anti-phospho residue antibody, SA-XL665 and a biotinylated substrate. The signal is proportional to the concentration of phospho-residues.
(§10) Equipment Required • 1. […] Plate centrifuge • 3. Plate shaker • 4. […] Single channel and multi-channel pipettes • 6. Microplate reader (Pherastar)]
as §3, with “arrived. For Ruxolitinib the starting FAC is 1 μM.” for “arrived.”
(§11) • JAK-1: Invtirogen Cat: PR8767C • JAK-2: Invtirogen Cat: PR7820B • JAK-3: Invtirogen Cat: PR7507B • 3. Substrate (synthetic peptide-Biotinylated-N-terminal tag-[…] from Biopeptide) stock and FAC
(§12) • Adenosine 5′-triphosphate disodium salt hydrate: Sigma Cat: A26209 • 5. […] Buffers • Base buffer (for 50 ml)
(§13) • HTRF buffer: • 50 mM Tris-HCl, pH—7.5 • 100 mM NaCl • 0.1% BSA • 0.05% Tween20 • 0.5 mM EDTA
(§14) To a 384 well black-plate: • 1. Add 17 μL of the buffer to each well of the 384-well black plate • 2. […] Add 5 μl of the enzyme to each well of the plate • 4. Add 10 μl of the substrate and ATP mix to all the wells • 5. Cover with plate sealer • 6. […] Incubate at room temperature for 1 hour on shaker • 8. […] Add 37.5 μL of the HTRF mix to these wells. • 9. Incubate the plate at room temperature on shaker for 45 minutes. • 10.
as §8

[8] = target: JAK3 (Homo sapiens (Human), UniProt P52333); experiment: HTRF kinase assay, JAK3; assay type: biochemical; details: Table 6
JAK3, sequence (P52333 whole entry): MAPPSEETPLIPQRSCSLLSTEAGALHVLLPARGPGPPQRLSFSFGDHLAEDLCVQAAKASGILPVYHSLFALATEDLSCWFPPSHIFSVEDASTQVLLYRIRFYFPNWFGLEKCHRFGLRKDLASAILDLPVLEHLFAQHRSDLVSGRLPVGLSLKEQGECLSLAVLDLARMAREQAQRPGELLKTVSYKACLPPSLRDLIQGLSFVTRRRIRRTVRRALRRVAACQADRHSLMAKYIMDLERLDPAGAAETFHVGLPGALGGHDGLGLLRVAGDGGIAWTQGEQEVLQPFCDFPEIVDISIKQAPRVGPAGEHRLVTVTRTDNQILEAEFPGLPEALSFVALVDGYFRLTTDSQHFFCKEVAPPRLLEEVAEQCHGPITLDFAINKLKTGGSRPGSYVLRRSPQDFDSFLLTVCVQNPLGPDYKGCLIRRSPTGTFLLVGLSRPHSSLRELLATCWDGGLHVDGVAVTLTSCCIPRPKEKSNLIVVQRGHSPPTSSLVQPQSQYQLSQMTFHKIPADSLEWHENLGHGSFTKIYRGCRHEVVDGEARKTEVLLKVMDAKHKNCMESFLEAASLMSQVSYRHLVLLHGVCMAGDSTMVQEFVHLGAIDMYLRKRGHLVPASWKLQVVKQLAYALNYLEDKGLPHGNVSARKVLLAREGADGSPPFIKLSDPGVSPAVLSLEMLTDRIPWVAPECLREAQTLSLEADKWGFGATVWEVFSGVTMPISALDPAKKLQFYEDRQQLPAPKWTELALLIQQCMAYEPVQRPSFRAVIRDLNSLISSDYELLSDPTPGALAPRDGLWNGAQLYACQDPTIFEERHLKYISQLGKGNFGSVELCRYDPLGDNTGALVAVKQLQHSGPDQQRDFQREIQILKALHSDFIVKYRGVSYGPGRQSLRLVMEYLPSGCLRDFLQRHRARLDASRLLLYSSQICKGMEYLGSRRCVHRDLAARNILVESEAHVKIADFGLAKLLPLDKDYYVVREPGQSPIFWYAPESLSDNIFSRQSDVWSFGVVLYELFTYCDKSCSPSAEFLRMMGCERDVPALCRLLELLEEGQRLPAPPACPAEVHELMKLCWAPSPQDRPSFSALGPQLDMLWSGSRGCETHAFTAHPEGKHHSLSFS
Source text: as §9, §10
as §3, with “arrived. For Ruxolitinib the starting FAC is 1 μM.” for “arrived.”
as §11, §12, §13, §14, §8

Row | SMILES | IC50 [1] [nM] | IC50 [2] [nM] | IC50 [3] [nM] | IC50 [4] [nM] | IC50 [5] [nM] | IC50 [6] [nM] | IC50 [7] [nM] | IC50 [8] [nM]
1 | CC(C)(C)S(=O)(=O)Nc1cccc(-n2ccc3cnc(Nc4ccc(C(=O)N5CCNCC5)c(F)c4)nc32)c1 [drawing 462] | 125 | 54 | 473 | 158 | 268 | 52 | 992 | 403
2 | CC(C)(C)S(=O)(=O)Nc1cccc(-n2ccc3cnc(Nc4ccc(C(=O)N5CCNCC5)c(F)c4)nc32)c1 [drawing 463] | 82 | 54 | 369 | 123 | 194 | 28 | 587 | 334
3 | CC(C)(C)S(=O)(=O)Nc1cc(-n2ccc3cnc(Nc4cc(F)c5c(c4)CC4CNCCN54)nc32)ccc1F (stereo not drawn) [drawing 465] | 115 | 120 | 353 | 83 | 292 | 61 | 10000 | 285
